Assay results as given in PubChem BioAssay AID2060611 (Molecular Pharmacology Branch, DTP, NCI, 2025).
pIC50: −log10 of the molar value.

System: 628569-122-R-J1-PDC complex spheroid viability
Experiment: Anticancer human tumor 628569-122-R-J1-PDC patient-derived head and neck squamous carcinoma cell line growth inhibition [CLK]
Settings: for viability, T/C: stronger effect = lower value; for pIC50: curve of first compound
Method in brief: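 Multi-cell-type spheroids combined patient-derived tumor cells with HUVEC endothelial cells and human mesenchymal stem cells. Paired agents were dosed in half-log steps down from about clinical Cmax, or from 10 microM where Cmax was unknown.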

[1] = second compound 0.0316 µM, first compound 0.0316 µM
[2] = second compound 0.0316 µM, first compound 0.1 µM
[3] = second compound 0.0316 µM, first compound 0.316 µM
[4] = second compound 0.0316 µM, first compound 1 µM
[5] = second compound 0.0316 µM, first compound 3.16 µM
[6] = second compound 0.0316 µM, first compound 10 µM
[7] = second compound 0.1 µM, first compound 0.0316 µM
[8] = second compound 0.1 µM, first compound 0.1 µM
[9] = second compound 0.1 µM, first compound 0.316 µM
[10] = second compound 0.1 µM, first compound 1 µM
[11] = second compound 0.1 µM, first compound 3.16 µM
[12] = second compound 0.1 µM, first compound 10 µM
[13] = second compound 0.316 µM, first compound 0.0316 µM
[14] = second compound 0.316 µM, first compound 0.1 µM
[15] = second compound 0.316 µM, first compound 0.316 µM
[16] = second compound 0.316 µM, first compound 1 µM
[17] = second compound 0.316 µM, first compound 3.16 µM
[18] = second compound 0.316 µM, first compound 10 µM
[19] = second compound 1 µM, first compound 0.0316 µM
[20] = second compound 1 µM, first compound 0.1 µM
[21] = second compound 1 µM, first compound 0.316 µM
[22] = second compound 1 µM, first compound 1 µM
[23] = second compound 1 µM, first compound 3.16 µM
[24] = second compound 1 µM, first compound 10 µM
[25] = second compound 3.16 µM, first compound 0.0316 µM
[26] = second compound 3.16 µM, first compound 0.1 µM
[27] = second compound 3.16 µM, first compound 0.316 µM
[28] = second compound 3.16 µM, first compound 1 µM
[29] = second compound 3.16 µM, first compound 3.16 µM
[30] = second compound 3.16 µM, first compound 10 µM
[31] = second compound 10 µM, first compound 0.0316 µM
[32] = second compound 10 µM, first compound 0.1 µM
[33] = second compound 10 µM, first compound 0.316 µM
[34] = second compound 10 µM, first compound 1 µM
[35] = second compound 10 µM, first compound 3.16 µM
[36] = second compound 10 µM, first compound 10 µM
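Also: spheroids exposed to agents for seven days before readout.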
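For viability, T/C in this document: 100% = DMSO vehicle control viability.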

Question: Which results are given for CN1CCN(c2cc(C(=O)Nc3cc4cc(-c5cnn(C)c5)ccc4cn3)ccn2)CC1?
Answer: viability, T/C (compound 0.0316 µM): 104% [middle of 12 runs]; viability, T/C (compound 0.1 µM): 69.2% [middle of 12 runs]; viability, T/C (compound 0.316 µM): 35.6% [middle of 12 runs]; viability, T/C (compound 1 µM): 5.28% [middle of 12 runs]; viability, T/C (compound 3.16 µM): 7.69% [middle of 12 runs]; viability, T/C (compound 10 µM): 6.81% [middle of 12 runs]; IC50 (compound alone, run of 09/18/2023): 187 nM [middle of 12 runs]

Question: What does the source list for COc1cccc2c1C(=O)c1c(O)c3c(c(O)c1C2=O)CC(O)(C(=O)CO)CC3OC1CC(N)C(O)C(C)O1 (stereo not drawn) + CN1CCN(c2cc(C(=O)Nc3cc4cc(-c5cnn(C)c5)ccc4cn3)ccn2)CC1?
Answer: pIC50 (second compound 0.0316 µM): 6.18; pIC50 (second compound 0.1 µM): 6.25; pIC50 (second compound 0.316 µM): > 7.50; pIC50 (second compound 1 µM): > 7.50; pIC50 (second compound 3.16 µM): > 7.50; pIC50 (second compound 10 µM): > 7.50; viability, T/C [1]: 79.8%; viability, T/C [2]: 64.6%; viability, T/C [3]: 114%; viability, T/C [4]: 29.3%; viability, T/C [5]: 9.76%; viability, T/C [6]: 6.19%; viability, T/C [7]: 69.3%; viability, T/C [8]: 85.4%; viability, T/C [9]: 96.8%; viability, T/C [10]: 17.1%; viability, T/C [11]: 11.4%; viability, T/C [12]: 6.38%; viability, T/C [13]: 36.8%; viability, T/C [14]: 58%; viability, T/C [15]: 15%; viability, T/C [16]: 4.91%; viability, T/C [17]: 9.87%; viability, T/C [18]: 7.68%; viability, T/C [19]: 7.46%; viability, T/C [20]: 5.6%; viability, T/C [21]: 6.96%; viability, T/C [22]: 8.8%; viability, T/C [23]: 7.92%; viability, T/C [24]: 4.27%; viability, T/C [25]: 10.7%; viability, T/C [26]: 6.4%; viability, T/C [27]: 4.58%; viability, T/C [28]: 8.38%; viability, T/C [29]: 7.51%; viability, T/C [30]: 3.19%; viability, T/C [31]: 2.99%; viability, T/C [32]: 3.91%; viability, T/C [33]: 1.4%; viability, T/C [34]: 7.4%; viability, T/C [35]: 3.49%; viability, T/C [36]: 0.29%

Question: Which results are given for CC(C)CC(NC(=O)C(Cc1ccccc1)NC(=O)c1cnccn1)B(O)O (stereo not drawn) + CN1CCN(c2cc(C(=O)Nc3cc4cc(-c5cnn(C)c5)ccc4cn3)ccn2)CC1?
Answer: pIC50 (second compound 0.0316 µM): 8.36; pIC50 (second compound 0.1 µM): 8.77; pIC50 (second compound 0.316 µM): > 9.02; pIC50 (second compound 1 µM): > 9.02; pIC50 (second compound 3.16 µM): > 9.02; pIC50 (second compound 10 µM): > 9.02; viability, T/C (second compound 0.0316 µM, first compound 0.000949 µM): 83.3%; viability, T/C (second compound 0.0316 µM, first compound 0.003 µM): 70.2%; viability, T/C (second compound 0.0316 µM, first compound 0.00949 µM): 9.85%; viability, T/C (second compound 0.0316 µM, first compound 0.03 µM): 8.4%; viability, T/C (second compound 0.0316 µM, first compound 0.0949 µM): 6.4%; viability, T/C (second compound 0.0316 µM, first compound 0.3 µM): 4.25%; viability, T/C (second compound 0.1 µM, first compound 0.000949 µM): 62.6%; viability, T/C (second compound 0.1 µM, first compound 0.003 µM): 37.3%; viability, T/C (second compound 0.1 µM, first compound 0.00949 µM): 7.61%; viability, T/C (second compound 0.1 µM, first compound 0.03 µM): 6.34%; viability, T/C (second compound 0.1 µM, first compound 0.0949 µM): 6.04%; viability, T/C (second compound 0.1 µM, first compound 0.3 µM): 5.02%; viability, T/C (second compound 0.316 µM, first compound 0.000949 µM): 37.8%; viability, T/C (second compound 0.316 µM, first compound 0.003 µM): 4.9%; viability, T/C (second compound 0.316 µM, first compound 0.00949 µM): 10.6%; viability, T/C (second compound 0.316 µM, first compound 0.03 µM): 4.39%; viability, T/C (second compound 0.316 µM, first compound 0.0949 µM): 4.89%; viability, T/C (second compound 0.316 µM, first compound 0.3 µM): 2.72%; viability, T/C (second compound 1 µM, first compound 0.000949 µM): 9.15%; viability, T/C (second compound 1 µM, first compound 0.003 µM): 8.04%; viability, T/C (second compound 1 µM, first compound 0.00949 µM): 4.76%; viability, T/C (second compound 1 µM, first compound 0.03 µM): 6.26%; viability, T/C (second compound 1 µM, first compound 0.0949 µM): 7.32%; viability, T/C (second compound 1 µM, first compound 0.3 µM): 5.71%; viability, T/C (second compound 3.16 µM, first compound 0.000949 µM): 6.67%; viability, T/C (second compound 3.16 µM, first compound 0.003 µM): 6.69%; viability, T/C (second compound 3.16 µM, first compound 0.00949 µM): 5.84%; viability, T/C (second compound 3.16 µM, first compound 0.03 µM): 5.55%; viability, T/C (second compound 3.16 µM, first compound 0.0949 µM): 5.83%; viability, T/C (second compound 3.16 µM, first compound 0.3 µM): 4.09%; viability, T/C (second compound 10 µM, first compound 0.000949 µM): 8.8%; viability, T/C (second compound 10 µM, first compound 0.003 µM): 1.66%; viability, T/C (second compound 10 µM, first compound 0.00949 µM): 2.36%; viability, T/C (second compound 10 µM, first compound 0.03 µM): 1.91%; viability, T/C (second compound 10 µM, first compound 0.0949 µM): 4.23%; viability, T/C (second compound 10 µM, first compound 0.3 µM): 0.93%

Question: Which results are given for O=C(c1cc(Cc2n[nH]c(=O)c3ccccc23)ccc1F)N1CCN(C(=O)C2CC2)CC1 + CNC(=O)c1ccc(Nc2nc(OC3CCCC3)c3c(-c4ccc5nc(C)oc5c4)c[nH]c3n2)c(OC)c1?
Answer: pIC50 (second compound 0.0316 µM): < 5.00; pIC50 (second compound 0.1 µM): < 5.00; pIC50 (second compound 0.316 µM): 5.70; pIC50 (second compound 1 µM): > 7.50; pIC50 (second compound 3.16 µM): > 7.50; pIC50 (second compound 10 µM): 7.50; viability, T/C [1]: 99.7%; viability, T/C [2]: 105%; viability, T/C [3]: 102%; viability, T/C [4]: 81.9%; viability, T/C [5]: 103%; viability, T/C [6]: 61.7%; viability, T/C [7]: 63.2%; viability, T/C [8]: 60%; viability, T/C [9]: 60.7%; viability, T/C [10]: 59.6%; viability, T/C [11]: 62.8%; viability, T/C [12]: 41.7%; viability, T/C [13]: 50.8%; viability, T/C [14]: 55.5%; viability, T/C [15]: 56.6%; viability, T/C [16]: 51.9%; viability, T/C [17]: 47.5%; viability, T/C [18]: 39.7%; viability, T/C [19]: 39.8%; viability, T/C [20]: 49.3%; viability, T/C [21]: 47.5%; viability, T/C [22]: 47%; viability, T/C [23]: 45.2%; viability, T/C [24]: 33.2%; viability, T/C [25]: 43.7%; viability, T/C [26]: 44.4%; viability, T/C [27]: 41.8%; viability, T/C [28]: 41.2%; viability, T/C [29]: 42.5%; viability, T/C [30]: 31.5%; viability, T/C [31]: 46.6%; viability, T/C [32]: 41.8%; viability, T/C [33]: 49.3%; viability, T/C [34]: 39.1%; viability, T/C [35]: 56.1%; viability, T/C [36]: 26.5%
